# Results from patent publication US20260176320A1, “MODULATORS OF G-PROTEIN COUPLED RECEPTORS” (priority 2018, published 2026).
# Like-named read-outs stand apart in the source and are kept apart here.
# Assays:
# Assay type in all cases: cell-based
# GIP-R = biological target: T1, GIP-R (Homo sapiens, UniProt P48546); test: HitHunter cAMP assay (GIP-R); settings: cAMP; for Emax: read-out: (Emax) GIP-R
# T1 sequence (P48546 22-466): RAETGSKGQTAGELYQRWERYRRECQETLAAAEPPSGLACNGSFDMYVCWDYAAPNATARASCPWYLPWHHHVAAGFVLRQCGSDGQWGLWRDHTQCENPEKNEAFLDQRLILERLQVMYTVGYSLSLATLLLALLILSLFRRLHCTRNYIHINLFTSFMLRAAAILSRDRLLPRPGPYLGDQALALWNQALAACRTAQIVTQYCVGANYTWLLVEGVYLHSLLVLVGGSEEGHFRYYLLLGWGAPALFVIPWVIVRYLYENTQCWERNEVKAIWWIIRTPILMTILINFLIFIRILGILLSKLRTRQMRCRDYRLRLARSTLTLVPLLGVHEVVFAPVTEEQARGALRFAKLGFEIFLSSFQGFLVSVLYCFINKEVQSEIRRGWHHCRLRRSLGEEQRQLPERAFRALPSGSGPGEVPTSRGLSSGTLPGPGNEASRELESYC
# Procedure, shortened: (§1)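 Luminescent readout of cAMP by enzyme-fragment immunocompetition gave agonist concentration-response data. Cells (10,000/well) sat in HBSS buffer containing IBMX 625 μM, HEPES 10 mM and BSA 0.2%, exposed to agonist for 30 min at room temperature.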
# GLP-1R [1] = biological target: T2, GLP-1R (Homo sapiens, UniProt P43220); test: HitHunter cAMP assay (GLP-1R); settings: cAMP; for Emax: read-out: (Emax) GLP-1R
# Procedure, shortened: as §1
# GLP-1R [2] = biological target: T2, GLP-1R; test: PathHunter β-arrestin assay
# Procedure, shortened: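 Overnight-plated cells; 0.2% BSA medium; agonist 22-pt 2× dilution series, duplicate; 90 min, 37 °C/5% CO2; detection reagent 3 h RT, dark; luminescence.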
# [3] = Table 3, read-out: EC50 GIP-R/nM
# [4] = Table 3A, read-out: EC50 GIP-R/nM
# [5] = Table 3, read-out: EC50 GLP-1R/nM
# [6] = Table 3A, read-out: EC50 GLP-1R/nM
# [7] = PathHunter β-arrestin assay, read-out: β-arrestin activity EC50
# T2 sequence (P43220 24-463): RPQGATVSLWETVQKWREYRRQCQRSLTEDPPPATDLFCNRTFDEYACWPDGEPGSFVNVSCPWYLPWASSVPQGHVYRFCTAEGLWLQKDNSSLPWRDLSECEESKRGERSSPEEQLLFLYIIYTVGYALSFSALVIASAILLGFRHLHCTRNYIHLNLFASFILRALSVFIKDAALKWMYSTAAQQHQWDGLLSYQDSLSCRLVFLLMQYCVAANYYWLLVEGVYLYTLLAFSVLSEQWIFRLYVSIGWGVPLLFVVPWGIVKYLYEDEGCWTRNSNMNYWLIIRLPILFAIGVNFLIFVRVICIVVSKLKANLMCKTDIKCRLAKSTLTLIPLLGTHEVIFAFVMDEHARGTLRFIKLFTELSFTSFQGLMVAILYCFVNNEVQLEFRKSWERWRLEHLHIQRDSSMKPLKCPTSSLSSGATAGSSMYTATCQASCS
Compound,Emax (GIP-R; Table 3),EC50 (GIP-R; [3]),Emax (GIP-R; Table 3A),EC50 (GIP-R; [4]),Emax (GLP-1R [1]; Table 3),EC50 (GLP-1R [1]; [5]),Emax (GLP-1R [1]; Table 3A),EC50 (GLP-1R [1]; [6]),EC50 (GLP-1R [2]; [7]),"EC50 (GIP-R; EC50 GIP-R/nM, Table 3)","EC50 (GIP-R; read-out: EC50 GIP-R/nM, Table 3A)","EC50 (GLP-1R [1]; EC50 GLP-1R/nM, Table 3)","EC50 (GLP-1R [1]; EC50 GLP-1R/nM, Table 3A)",EC50 (GLP-1R [2]),"EC50 (GIP-R; EC50 GIP-R/nM, Table 3A)"
CCCCCCCCCCCCCCCC(=O)N[C@@H](CCC(=O)NCCCC[C@H](NC(=O)[C@H](CO)NC(=O)[C@@H]1CCCN1C(=O)[C@@H]1CCCN1C(=O)[C@@H]1CCCN1C(=O)[C@H](C)NC(=O)CNC(=O)[C@H](CO)NC(=O)[C@H](CO)NC(=O)[C@@H]1CCCN1C(=O)CNC(=O)CNC(=O)[C@H](C)NC(=O)[C@H](CC(C)C)NC(=O)[C@H](CC(C)C)NC(=O)[C@H](Cc1c[nH]c2ccccc12)NC(=O)[C@H](CC(N)=O)NC(=O)[C@@H](NC(=O)[C@H](Cc1ccccc1)NC(=O)[C@H](CCC(=O)O)NC(=O)C(C)(C)NC(=O)[C@H](C)NC(=O)[C@H](C)NC(=O)[C@H](CCC(N)=O)NC(=O)[C@H](CCCCN)NC(=O)[C@H](CC(=O)O)NC(=O)[C@H](CC(C)C)NC(=O)[C@H](Cc1ccc(O)cc1)NC(=O)[C@@H](NC(=O)[C@H](CO)NC(=O)[C@H](Cc1ccc(O)cc1)NC(=O)[C@H](CC(=O)O)NC(=O)[C@H](CO)NC(=O)[C@@H](NC(=O)[C@H](Cc1ccccc1)NC(=O)[C@@H](NC(=O)CNC(=O)[C@H](CCC(=O)O)NC(=O)CSCC(=O)NCCN1CCN(C)C(=O)C1)[C@@H](C)O)[C@@H](C)O)[C@@H](C)CC)C(C)C)C(N)=O)C(=O)O [Compound 38],18 to 43%,1 to 10 nM,18 to 43%,1 to 1000 nM,97 to 104%,0.1 to 1 nM,97 to 104%,0.1 to 1 nM,> 1000 nM,,,,,,
CCCCCCCCCCCCCCCC(=O)N[C@@H](CCC(=O)NCCCC[C@H](NC(=O)[C@H](CO)NC(=O)[C@@H]1CCCN1C(=O)[C@@H]1CCCN1C(=O)[C@@H]1CCCN1C(=O)[C@H](C)NC(=O)CNC(=O)[C@H](CO)NC(=O)[C@H](CO)NC(=O)[C@@H]1CCCN1C(=O)CNC(=O)CNC(=O)[C@H](C)NC(=O)[C@H](CC(C)C)NC(=O)[C@H](CC(C)C)NC(=O)[C@H](Cc1c[nH]c2ccccc12)NC(=O)[C@H](CC(N)=O)NC(=O)[C@@H](NC(=O)[C@H](Cc1ccccc1)NC(=O)[C@H](CCC(=O)O)NC(=O)C(C)(C)NC(=O)[C@H](C)NC(=O)[C@H](C)NC(=O)[C@H](CCC(N)=O)NC(=O)[C@H](CCCCN)NC(=O)[C@H](CC(=O)O)NC(=O)[C@H](CC(C)C)NC(=O)[C@H](Cc1ccc(O)cc1)NC(=O)[C@@H](NC(=O)[C@H](CO)NC(=O)[C@H](Cc1ccc(O)cc1)NC(=O)[C@H](CC(=O)O)NC(=O)[C@H](CO)NC(=O)[C@@H](NC(=O)[C@H](Cc1ccccc1)NC(=O)[C@@H](NC(=O)CNC(=O)[C@H](CCC(=O)O)NC(=O)CSCC(=O)NCCN1CCOC1=O)[C@@H](C)O)[C@@H](C)O)[C@@H](C)CC)C(C)C)C(N)=O)C(=O)O [Compound 39],40 to 60%,0.1 to 10 nM,40 to 60%,0.1 to 10 nM,102 to 104%,< 1 nM,102 to 104%,< 1 nM,> 1000 nM,,,,,,
CCCCCCCCCCCCCCCC(=O)N[C@@H](CCC(=O)NCCCC[C@H](NC(=O)[C@H](CO)NC(=O)[C@@H]1CCCN1C(=O)[C@@H]1CCCN1C(=O)[C@@H]1CCCN1C(=O)[C@H](C)NC(=O)CNC(=O)[C@H](CO)NC(=O)[C@H](CO)NC(=O)[C@@H]1CCCN1C(=O)CNC(=O)CNC(=O)[C@H](C)NC(=O)[C@H](CC(C)C)NC(=O)[C@H](CC(C)C)NC(=O)[C@H](Cc1c[nH]c2ccccc12)NC(=O)[C@H](CC(N)=O)NC(=O)[C@@H](NC(=O)[C@H](Cc1ccccc1)NC(=O)[C@H](CCC(=O)O)NC(=O)C(C)(C)NC(=O)[C@H](C)NC(=O)[C@H](C)NC(=O)[C@H](CCC(N)=O)NC(=O)[C@H](CCCCN)NC(=O)[C@H](CC(=O)O)NC(=O)[C@H](CC(C)C)NC(=O)[C@H](Cc1ccc(O)cc1)NC(=O)[C@@H](NC(=O)[C@H](CO)NC(=O)[C@H](Cc1ccc(O)cc1)NC(=O)[C@H](CC(=O)O)NC(=O)[C@H](CO)NC(=O)[C@@H](NC(=O)[C@H](Cc1ccccc1)NC(=O)[C@@H](NC(=O)CNC(=O)[C@H](CCC(=O)O)NC(=O)CSCC(=O)NCCN1CCCCS1(=O)=O)[C@@H](C)O)[C@@H](C)O)[C@@H](C)CC)C(C)C)C(N)=O)C(=O)O [Compound 40],14 to 34%,,14 to 34%,,101 to 105%,,101 to 105%,,,1 to 10 nM,1 to 1000 nM,0.1 to 1 nM,0.1 to 1 nM,> 1000 nM,
CCCCCCCCCCCCCCCC(=O)N[C@@H](CCC(=O)NCCCC[C@H](NC(=O)[C@H](CO)NC(=O)[C@@H]1CCCN1C(=O)[C@@H]1CCCN1C(=O)[C@@H]1CCCN1C(=O)[C@H](C)NC(=O)CNC(=O)[C@H](CO)NC(=O)[C@H](CO)NC(=O)[C@@H]1CCCN1C(=O)CNC(=O)CNC(=O)[C@H](C)NC(=O)[C@H](CC(C)C)NC(=O)[C@H](CC(C)C)NC(=O)[C@H](Cc1c[nH]c2ccccc12)NC(=O)[C@H](CC(N)=O)NC(=O)[C@@H](NC(=O)[C@H](Cc1ccccc1)NC(=O)[C@H](CCC(=O)O)NC(=O)C(C)(C)NC(=O)[C@H](C)NC(=O)[C@H](C)NC(=O)[C@H](CCC(N)=O)NC(=O)[C@H](CCCCN)NC(=O)[C@H](CC(=O)O)NC(=O)[C@H](CC(C)C)NC(=O)[C@H](Cc1ccc(O)cc1)NC(=O)[C@@H](NC(=O)[C@H](CO)NC(=O)[C@H](Cc1ccc(O)cc1)NC(=O)[C@H](CC(=O)O)NC(=O)[C@H](CO)NC(=O)[C@@H](NC(=O)[C@H](Cc1ccccc1)NC(=O)[C@@H](NC(=O)CNC(=O)[C@H](CCC(=O)O)NC(=O)CSCC(=O)NCCN1CCCS1(=O)=O)[C@@H](C)O)[C@@H](C)O)[C@@H](C)CC)C(C)C)C(N)=O)C(=O)O [Compound 42],28 to 46%,0.1 to 10 nM,28 to 46%,0.1 to 100 nM,102 to 109%,< 1 nM,102 to 109%,< 1 nM,> 1000 nM,,,,,,
CCCCCCCCCCCCCCCC(=O)N[C@@H](CCC(=O)NCCCC[C@H](NC(=O)[C@H](CO)NC(=O)[C@@H]1CCCN1C(=O)[C@@H]1CCCN1C(=O)[C@@H]1CCCN1C(=O)[C@H](C)NC(=O)CNC(=O)[C@H](CO)NC(=O)[C@H](CO)NC(=O)[C@@H]1CCCN1C(=O)CNC(=O)CNC(=O)[C@H](C)NC(=O)[C@H](CC(C)C)NC(=O)[C@H](CC(C)C)NC(=O)[C@H](Cc1c[nH]c2ccccc12)NC(=O)[C@H](CC(N)=O)NC(=O)[C@@H](NC(=O)[C@H](Cc1ccccc1)NC(=O)[C@H](CCC(=O)O)NC(=O)C(C)(C)NC(=O)[C@H](C)NC(=O)[C@H](C)NC(=O)[C@H](CCC(N)=O)NC(=O)[C@H](CCCCN)NC(=O)[C@H](CC(=O)O)NC(=O)[C@H](CC(C)C)NC(=O)[C@H](Cc1ccc(O)cc1)NC(=O)[C@@H](NC(=O)[C@H](CO)NC(=O)[C@H](Cc1ccc(O)cc1)NC(=O)[C@H](CC(=O)O)NC(=O)[C@H](CO)NC(=O)[C@@H](NC(=O)[C@H](Cc1ccccc1)NC(=O)[C@@H](NC(=O)CNC(=O)[C@H](CCC(=O)O)NC(=O)CSCC(=O)NCCN1C(=O)CC[C@@H]1CO)[C@@H](C)O)[C@@H](C)O)[C@@H](C)CC)C(C)C)C(N)=O)C(=O)O [Compound 43],60 to 73%,,60 to 73%,,93 to 97%,,93 to 97%,,,1 to 10 nM,,0.1 to 1 nM,0.1 to 1 nM,> 1000 nM,1 to 10 nM
CCCCCCCCCCCCCCCC(=O)N[C@@H](CCC(=O)NCCCC[C@H](NC(=O)[C@H](CO)NC(=O)[C@@H]1CCCN1C(=O)[C@@H]1CCCN1C(=O)[C@@H]1CCCN1C(=O)[C@H](C)NC(=O)CNC(=O)[C@H](CO)NC(=O)[C@H](CO)NC(=O)[C@@H]1CCCN1C(=O)CNC(=O)CNC(=O)[C@H](C)NC(=O)[C@H](CC(C)C)NC(=O)[C@H](CC(C)C)NC(=O)[C@H](Cc1c[nH]c2ccccc12)NC(=O)[C@H](CC(N)=O)NC(=O)[C@@H](NC(=O)[C@H](Cc1ccccc1)NC(=O)[C@H](CCC(=O)O)NC(=O)C(C)(C)NC(=O)[C@H](C)NC(=O)[C@H](C)NC(=O)[C@H](CCC(N)=O)NC(=O)[C@H](CCCCN)NC(=O)[C@H](CC(=O)O)NC(=O)[C@H](CC(C)C)NC(=O)[C@H](Cc1ccc(O)cc1)NC(=O)[C@@H](NC(=O)[C@H](CO)NC(=O)[C@H](Cc1ccc(O)cc1)NC(=O)[C@H](CC(=O)O)NC(=O)[C@H](CO)NC(=O)[C@@H](NC(=O)[C@H](Cc1ccccc1)NC(=O)[C@@H](NC(=O)CNC(=O)[C@H](CCC(=O)O)NC(=O)CSCC(=O)NCCN1C(=O)CC[C@H]1CO)[C@@H](C)O)[C@@H](C)O)[C@@H](C)CC)C(C)C)C(N)=O)C(=O)O [Compound 44],54 to 67%,,54 to 67%,,97 to 99%,,97 to 99%,,,1 to 10 nM,,0.1 to 1 nM,0.1 to 1 nM,> 1000 nM,1 to 10 nM
